Values joined by “and” are separate entries in the source; they are usually repeats but may differ in a detail not shown here. Identical values can stand only once. Active and inactive are the calls of the source. No cut-off for these calls is given here.
What was measured:
Heat shock protein HSP90 [1] = target: T1, Heat shock protein HSP90 (Homo sapiens, UniProt P07900+P08238); test: Inhibition of Hsp90 in human A549 cells assessed as upregulation of Hsp70 level at 25 to 100 nM by Western blot analysis; assay type: cell-based; conditions: dose 25-100 nM
Heat shock protein HSP90 [2] = target: T1, Heat shock protein HSP90; test: Inhibition of Hsp90 (unknown origin); assay type: protein assay
A549 [3] = test: Cytotoxicity against human A549 cells by MTT assay; assay type: functional, cell-based
[4] = Cytotoxicity against human 95-D cells by MTT assay; assay type: functional, cell-based
MCF7 = test: Cytotoxicity against human MCF7 cells by MTT assay; assay type: functional, cell-based
MDA-MB-231 = test: Cytotoxicity against human MDA-MB-231 cells by MTT assay; assay type: functional, cell-based
HeLa = test: Cytotoxicity against human HeLa cells by MTT assay; assay type: functional, cell-based
ES-2 = test: Cytotoxicity against human ES2 cells by MTT assay; assay type: functional, cell-based
A549 [5] = test: Induction of cell cycle arrest in human A549 cells assessed as accumulation at G1 phase at 10 nM incubated for 48 hrs by flow cytometry (reference value: 61.70 %); assay type: functional
A549 [6] = test: Induction of cell cycle arrest in human A549 cells assessed as accumulation at G2 phase at 10 nM incubated for 48 hrs by flow cytometry (reference value: 2.53 %); assay type: functional
A549 [7] = test: Induction of cell cycle arrest in human A549 cells assessed as accumulation at S phase at 10 nM incubated for 48 hrs by flow cytometry (reference value: 35.77 %); assay type: functional
A549 [8] = test: Induction of cell cycle arrest in human A549 cells assessed as accumulation at G2/G1 phase at 10 nM incubated for 48 hrs by flow cytometry (reference value: 2 %); assay type: functional
A549 [9] = test: Induction of cell cycle arrest in human A549 cells assessed as accumulation at G1 phase at 50 nM incubated for 48 hrs by flow cytometry (reference value: 61.70 %); assay type: functional
A549 [10] = test: Induction of cell cycle arrest in human A549 cells assessed as accumulation at G2 phase at 50 nM incubated for 48 hrs by flow cytometry (reference value: 2.53 %); assay type: functional
A549 [11] = test: Induction of cell cycle arrest in human A549 cells assessed as accumulation at S phase at 50 nM incubated for 48 hrs by flow cytometry (reference value: 35.77 %); assay type: functional
A549 [12] = test: Induction of cell cycle arrest in human A549 cells assessed as accumulation at G2/G1 phase at 50 nM incubated for 48 hrs by flow cytometry (reference value: 2 %); assay type: functional
A549 [13] = test: Induction of cell cycle arrest in human A549 cells assessed as accumulation at G1 phase at 200 nM incubated for 48 hrs by flow cytometry (reference value: 61.70 %); assay type: functional
A549 [14] = test: Induction of cell cycle arrest in human A549 cells assessed as accumulation at G2 phase at 200 nM incubated for 48 hrs by flow cytometry (reference value: 2.53 %); assay type: functional
A549 [15] = test: Induction of cell cycle arrest in human A549 cells assessed as accumulation at S phase at 200 nM incubated for 48 hrs by flow cytometry (reference value: 35.77 %); assay type: functional
A549 [16] = test: Induction of cell cycle arrest in human A549 cells assessed as accumulation at G2/G1 phase at 200 nM incubated for 48 hrs by flow cytometry (reference value: 2 %); assay type: functional
A549 [17] = test: Induction of apoptosis in human A549 cells assessed as viable cells at 10 nM incubated for 48 hrs by annexin V-FITC/7-AAD staining based flow cytometry (reference value: 96.1 %); assay type: functional; conditions: read-out: Activity
A549 [18] = test: Induction of apoptosis in human A549 cells assessed as early apoptotic cells at 10 nM incubated for 48 hrs by annexin V-FITC/7-AAD staining based flow cytometry (reference value: 0.32 %); assay type: functional
A549 [19] = test: Induction of apoptosis in human A549 cells assessed as late apoptotic cells at 10 nM incubated for 48 hrs by annexin V-FITC/7-AAD staining based flow cytometry (reference value: 0.64 %); assay type: functional
A549 [20] = test: Induction of apoptosis in human A549 cells assessed as necrotic cells at 10 nM incubated for 48 hrs by annexin V-FITC/7-AAD staining based flow cytometry (reference value: 0.92 %); assay type: functional
A549 [21] = test: Induction of apoptosis in human A549 cells assessed as viable cells at 50 nM incubated for 48 hrs by annexin V-FITC/7-AAD staining based flow cytometry (reference value: 96.1 %); assay type: functional; conditions: read-out: Activity
A549 [22] = test: Induction of apoptosis in human A549 cells assessed as early apoptotic cells at 50 nM incubated for 48 hrs by annexin V-FITC/7-AAD staining based flow cytometry (reference value: 0.32 %); assay type: functional
A549 [23] = test: Induction of apoptosis in human A549 cells assessed as late apoptotic cells at 50 nM incubated for 48 hrs by annexin V-FITC/7-AAD staining based flow cytometry (reference value: 0.64 %); assay type: functional
A549 [24] = test: Induction of apoptosis in human A549 cells assessed as necrotic cells at 50 nM incubated for 48 hrs by annexin V-FITC/7-AAD staining based flow cytometry (reference value: 0.92 %); assay type: functional
A549 [25] = test: Induction of apoptosis in human A549 cells assessed as viable cells at 200 nM incubated for 48 hrs by annexin V-FITC/7-AAD staining based flow cytometry (reference value: 96.1 %); assay type: functional; conditions: read-out: Activity
A549 [26] = test: Induction of apoptosis in human A549 cells assessed as early apoptotic cells at 200 nM incubated for 48 hrs by annexin V-FITC/7-AAD staining based flow cytometry (reference value: 0.32 %); assay type: functional
A549 [27] = test: Induction of apoptosis in human A549 cells assessed as late apoptotic cells at 200 nM incubated for 48 hrs by annexin V-FITC/7-AAD staining based flow cytometry (reference value: 0.64 %); assay type: functional
A549 [28] = test: Induction of apoptosis in human A549 cells assessed as necrotic cells at 200 nM incubated for 48 hrs by annexin V-FITC/7-AAD staining based flow cytometry (reference value: 0.92 %); assay type: functional
A549 [29] = test: Inhibition of colony formation in human A549 cells; assay type: functional, cell-based; conditions: dose 10-20 nM
A549 [30] = test: Anti-migration activity in human A549 cells at 0.3 to 3 nM incubated for 48 hrs by scratch wound healing assay; assay type: functional, cell-based; conditions: dose 0.3-3 nM
Heat shock protein HSP90 [31] = target: T1, Heat shock protein HSP90; test: Inhibition of Hsp90 in human A549 cells assessed as downregulation of HER2 level by Western blot analysis; assay type: cell-based; conditions: dose 25-100 nM
Heat shock protein HSP90 [32] = target: T1, Heat shock protein HSP90; test: Inhibition of Hsp90 in human A549 cells assessed as downregulation of CDK4 level by Western blot analysis; assay type: cell-based; conditions: dose 25-100 nM

SMILES	IC50 (Heat shock protein HSP90 [2])	IC50 (A549 [3])	IC50 [4]	IC50 (MCF7)	IC50 (MDA-MB-231)	IC50 (HeLa)	IC50 (ES-2)	Activity (A549 [9])	Activity (A549 [10])	Activity (A549 [11])	Activity (A549 [12])	Activity (A549 [13])	Activity (A549 [14])	Activity (A549 [15])	Activity (A549 [16])	viability at 0.05 µM (A549 [21])	Activity (A549 [22])	Activity (A549 [23])	Activity (A549 [24])	viability at 0.2 µM (A549 [25])	further results
CCNC(=O)c1noc(-c2cc(C(C)C)c(O)cc2O)c1-c1ccc(S(C)(=O)=O)cc1	9 nM	8.65 nM	1.69 nM	1.35 nM	2.81 nM	2 nM	8.6 nM	70.94%	13.38%	15.68%	2%	78.26%	14.76%	6.98%	2%	93%	1.7%	3.1%	2.24%	82.5%	inhibition (Heat shock protein HSP90 [1]): Active; Activity (A549 [5]): 55.38%; Activity (A549 [6]): 3.19%; Activity (A549 [7]): 41.43%; Activity (A549 [8]): 2%; viability at 0.01 µM (A549 [17]): 95.5%; Activity (A549 [18]): 2.74%; Activity (A549 [19]): 1.15%; Activity (A549 [20]): 0.59%; Activity (A549 [26]): 5.98%; Activity (A549 [27]; 48 h, 0.2 µM): 2.74% and 8.59%; Activity (A549 [28]): 2.94%; inhibition (A549 [29]): Dose-Dependent Effect; Activity (A549 [30]): Active; inhibition (Heat shock protein HSP90 [31]): Dose-Dependent Effect; inhibition (Heat shock protein HSP90 [32]): Dose-Dependent Effect
CCNC(=O)c1noc(-c2cc(Cl)c(O)cc2O)c1-c1ccc(OC)cc1	–	223 nM	–	69.6 nM	75.8 nM	219 nM	50.4 nM	–	–	–	–	–	–	–	–	–	–	–	–	–	–
CCNC(=O)c1noc(-c2cc(C(C)C)c(O)cc2O)c1-c1ccc([N+](=O)[O-])cc1	15 nM	16.2 nM	2.91 nM	2.89 nM	5.26 nM	19 nM	12.4 nM	–	–	–	–	–	–	–	–	–	–	–	–	–	–
COC1=C2C[C@@H](C)C[C@H](OC)[C@H](O)[C@@H](C)/C=C(\C)[C@H](OC(N)=O)[C@@H](OC)/C=C\C=C(/C)C(=O)NC(=CC1=O)C2=O [GELDANAMYCIN]	–	–	–	–	–	–	–	60.64%	3.72%	35.64%	2%	68.97%	9.03%	22%	2%	93.3%	1.78%	2.58%	2.31%	90.6%	Activity (A549 [26]): 3.26%; Activity (A549 [27]): 3.77%; Activity (A549 [28]): 2.38%
CCNC(=O)c1noc(-c2cc(C(C)C)c(O)cc2O)c1-c1ccc(P(C)(C)=O)cc1	171 nM	730 nM	676 nM	230 nM	214 nM	210 nM	156 nM	–	–	–	–	–	–	–	–	–	–	–	–	–	–
